Laboratory results taken from PMC7994582 (Communications Biology, 2021).
Where a SMILES comes first, the peptide text is derived from it. [ ]: non-standard residue; d: D form. pS = N[C@@H](COP(=O)(O)O)C(=O)O

Assays:
[1] = molecular target: T1, Ess1 (Saccharomyces cerevisiae, UniProt P22696, R8S); experiment: NMR 1H-15N HSQC titration, Kd determination (single-site model); assay type: binding
T1 construct: Full-length Ess1 or Ess1 C120S plasmid was used to transform E. coli cells; 6xHis (cleaved yes); made in house; host or cells: E. coli Rosetta II (DE3) pLysS, isotope-labeled M9 minimal media
T1 sequence (P22696 whole entry R8S): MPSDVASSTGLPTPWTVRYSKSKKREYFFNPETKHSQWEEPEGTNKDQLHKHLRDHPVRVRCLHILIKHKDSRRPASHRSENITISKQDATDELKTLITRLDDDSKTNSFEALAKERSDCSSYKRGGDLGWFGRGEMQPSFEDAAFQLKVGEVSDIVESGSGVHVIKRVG
Procedure: Binding was monitored by recording ^1H–^15N HSQC spectra at different peptide to protein ratios. For each backbone amide, we assumed that the CSP was a weighted average between the free (Δδ = 0) and ligand-bound (Δδ = Δδbound) states, such that Δδ = Δδbound * [PL]/[Ptotal]. Here, [PL] and [Ptotal] represent the ligand-bound protein concentration, and Ptotal is the total protein concentration of Ess1. The CSP for each amide was calculated using the equation CSP=ΔδH^2+ΔδN/5^2 where ΔδH and ΔδN represent the change in chemical shift in the ^1H and ^15N dimensions, such that Δδ = 0 when calculating the CSP for the reference spectrum (in the absence of ligand). To obtain the dissociation binding constant, Kd, we used the single-site binding equation, PL=(([Ptotal]+[Ltotal]+Kd)−([Ptotal]+[Ltotal]+Kd)^2−4*[Ptotal]*[Ltotal])/2 , where [Ptotal] and [Ltotal] are total protein (Ess1) and ligand (CTD peptide) concentrations, respectively. Fitting was performed using an in-house Matlab script. […] Errors represent standard deviation of residue-specific Kd values.

[2] = molecular target: T1, Ess1; experiment: Competition fluorescence anisotropy (unlabeled CTD peptides vs. FITC-1R-CTD for Ess1 binding); conditions: for Normalized Anisotropy: competition vs FITC-1R-CTD, mean
Procedure: A 1 repeat CTD peptide labeled with FITC at its N-terminus was used as a probe (FITC-1R, Table 2). […] Each point represents an average (±SD) of n = 2 or 3 from independent experiments.
Fluorescence anisotropy measurements were performed in a Hidex Sense microplate reader using an excitation wavelength of 485 nm and an emission wavelength of 535 nm. Measurements were performed in 20 mM Tris pH 8.0, 3 mM TCEP buffer. […] Competition data was used to calculate IC50 values to compare the affinity differences between all five substrates (Eq. (1)).1 Competitionmodel:f1=min+max−min/1+x/IC50∧−Hillslope

[3] = molecular target: 1R CTD peptide CTD 1 repeat (Saccharomyces cerevisiae) (UniProt P04050); conditions: cited from earlier work
Chain of 1R CTD peptide CTD 1 repeat (Saccharomyces cerevisiae) (P04050 whole entry, looked up, tested part not stated): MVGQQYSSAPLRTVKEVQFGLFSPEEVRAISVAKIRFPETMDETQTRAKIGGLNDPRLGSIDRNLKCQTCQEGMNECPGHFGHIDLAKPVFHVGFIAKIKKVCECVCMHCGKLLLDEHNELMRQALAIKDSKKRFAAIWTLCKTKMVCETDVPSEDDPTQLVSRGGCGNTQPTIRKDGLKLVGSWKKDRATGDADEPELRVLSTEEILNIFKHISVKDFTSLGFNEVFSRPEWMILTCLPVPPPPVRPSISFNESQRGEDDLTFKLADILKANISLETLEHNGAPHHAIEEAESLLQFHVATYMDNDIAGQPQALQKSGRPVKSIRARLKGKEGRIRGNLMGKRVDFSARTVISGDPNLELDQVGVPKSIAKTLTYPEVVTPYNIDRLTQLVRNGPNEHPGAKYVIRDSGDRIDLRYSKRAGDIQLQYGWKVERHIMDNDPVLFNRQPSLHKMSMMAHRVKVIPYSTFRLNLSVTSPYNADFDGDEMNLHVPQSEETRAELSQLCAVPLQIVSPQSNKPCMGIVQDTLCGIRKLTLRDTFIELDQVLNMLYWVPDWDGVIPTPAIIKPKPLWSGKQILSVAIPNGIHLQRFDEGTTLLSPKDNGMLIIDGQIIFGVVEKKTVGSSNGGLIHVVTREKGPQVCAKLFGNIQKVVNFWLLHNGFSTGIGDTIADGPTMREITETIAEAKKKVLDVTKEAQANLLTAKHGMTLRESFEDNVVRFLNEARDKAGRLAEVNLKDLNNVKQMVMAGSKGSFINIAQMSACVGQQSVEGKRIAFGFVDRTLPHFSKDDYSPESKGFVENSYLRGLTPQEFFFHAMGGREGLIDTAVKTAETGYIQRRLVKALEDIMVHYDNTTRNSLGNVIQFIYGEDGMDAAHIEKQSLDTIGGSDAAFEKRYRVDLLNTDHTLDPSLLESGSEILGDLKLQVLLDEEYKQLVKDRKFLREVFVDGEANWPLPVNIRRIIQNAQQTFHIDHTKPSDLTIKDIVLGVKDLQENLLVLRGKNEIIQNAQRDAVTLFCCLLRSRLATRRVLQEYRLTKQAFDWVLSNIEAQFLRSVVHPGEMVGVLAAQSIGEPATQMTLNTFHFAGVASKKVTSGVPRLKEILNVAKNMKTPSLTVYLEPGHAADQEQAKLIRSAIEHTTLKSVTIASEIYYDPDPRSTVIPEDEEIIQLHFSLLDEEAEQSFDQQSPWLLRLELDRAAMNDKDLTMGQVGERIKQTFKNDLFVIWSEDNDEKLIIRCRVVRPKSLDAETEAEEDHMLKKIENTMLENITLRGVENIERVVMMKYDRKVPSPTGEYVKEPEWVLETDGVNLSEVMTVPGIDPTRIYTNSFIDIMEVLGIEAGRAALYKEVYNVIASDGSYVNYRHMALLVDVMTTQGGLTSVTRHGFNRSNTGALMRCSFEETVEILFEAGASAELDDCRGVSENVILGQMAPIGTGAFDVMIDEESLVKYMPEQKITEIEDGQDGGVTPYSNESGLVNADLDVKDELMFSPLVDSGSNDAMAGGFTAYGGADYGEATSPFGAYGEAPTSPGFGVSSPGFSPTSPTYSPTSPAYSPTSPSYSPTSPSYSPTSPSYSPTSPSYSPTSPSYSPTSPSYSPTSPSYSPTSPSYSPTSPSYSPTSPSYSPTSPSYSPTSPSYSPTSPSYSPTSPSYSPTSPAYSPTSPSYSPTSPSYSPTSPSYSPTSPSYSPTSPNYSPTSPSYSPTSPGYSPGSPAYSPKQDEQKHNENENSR

[4] = residue-specific, 1 to 1 binding fit of NMR titration

Chain of Ess1 (from UniProt P22696) (P22696 whole entry): as the sequence (P22696 whole entry R8S) above, with S8R counted along it

**Q.** With `CC(=O)N[C@@H](C)C(=O)N[C@@H](CO)C(=O)N[C@@H](Cc1ccc(O)cc1)C(=O)N[C@@H](CO)C(=O)N1CCC[C@H]1C(=O)N[C@H](C(=O)N[C@@H](COP(=O)(O)O)C(=O)N1CCC[C@H]1C(=O)N[C@@H](CO)C(=O)N[C@@H](Cc1ccc(O)cc1)C(=O)N[C@@H](CO)C(N)=O)[C@@H](C)O` [1R] (Ac-ASYSPT[pS]PSYS-NH2) as the compound, how does the Kd [1] read?
**A.** 155 µM

**Q.** And the “Kd, Ess1 residue 16” value [1, 4]?
**A.** 119.2 µM

**Q.** What about the “Kd, Ess1 residue 17” value [1, 4] of the same compound?
**A.** 111.1 µM

**Q.** And the “Kd, Ess1 residue 18” value [1, 4]?
**A.** 151.9 µM

**Q.** And the “Kd, Ess1 residue 19” value [1, 4]?
**A.** 153.7 µM

**Q.** What about the “Kd, Ess1 residue 23” value [1, 4] of the same compound?
**A.** 148.5 µM

**Q.** And the “Kd, Ess1 residue 25” value [1, 4]?
**A.** 124.8 µM

**Q.** What about the “Kd, Ess1 residue 26” value [1, 4] of the same compound?
**A.** 196.0 µM

**Q.** And the “Kd, Ess1 residue 27” value [1, 4]?
**A.** 128.9 µM

**Q.** And the “Kd, Ess1 residue 28” value [1, 4]?
**A.** 161.3 µM

**Q.** What about the “Kd, Ess1 residue 29” value [1, 4] of the same compound?
**A.** 141.4 µM

**Q.** What about the “Kd, Ess1 residue 30” value [1, 4] of the same compound?
**A.** 103.1 µM

**Q.** What about the “Kd, Ess1 residue 34” value [1, 4] of the same compound?
**A.** 233.3 µM

**Q.** What about the “Kd, Ess1 residue 35” value [1, 4] of the same compound?
**A.** 274.5 µM

**Q.** What about the “Kd, Ess1 residue 37” value [1, 4] of the same compound?
**A.** 153.0 µM

**Q.** And the “Kd, Ess1 residue 38” value [1, 4]?
**A.** 102.8 µM

**Q.** And the “Kd, Ess1 residue 39” value [1, 4]?
**A.** 153.9 µM

**Q.** And the “Kd, Ess1 residue 40” value [1, 4]?
**A.** 157.5 µM

**Q.** And the “Kd, Ess1 residue 48” value [1, 4]?
**A.** 156.8 µM

**Q.** And the “Kd, Ess1 residue 49” value [1, 4]?
**A.** 216.2 µM

**Q.** What about the “Kd, Ess1 residue 52” value [1, 4] of the same compound?
**A.** 132.6 µM

**Q.** And the “Kd, Ess1 residue 58” value [1, 4]?
**A.** 96.2 µM

**Q.** And the “Kd, Ess1 residue 59” value [1, 4]?
**A.** 156.4 µM

**Q.** What about the “Kd, Ess1 residue 64” value [1, 4] of the same compound?
**A.** 134.1 µM

**Q.** What about the “Kd, Ess1 residue 70” value [1, 4] of the same compound?
**A.** 111.0 µM

**Q.** What about the “Kd, Ess1 residue 73” value [1, 4] of the same compound?
**A.** 89.4 µM

**Q.** What about the “Kd, Ess1 residue 84” value [1, 4] of the same compound?
**A.** 119.4 µM

**Q.** And the “Kd, Ess1 residue 87” value [1, 4]?
**A.** 180.8 µM

**Q.** And the “Kd, Ess1 residue 123” value [1, 4]?
**A.** 227.8 µM

**Q.** And the “Kd, Ess1 residue 130” value [1, 4]?
**A.** 175.2 µM

**Q.** And the “Kd, Ess1 residue 131” value [1, 4]?
**A.** 207.7 µM

**Q.** And the “Kd, Ess1 residue 133” value [1, 4]?
**A.** 166.8 µM

**Q.** And the “Kd, Ess1 residue 137” value [1, 4]?
**A.** 128.3 µM

**Q.** What about the “Kd, Ess1 residue 145” value [1, 4] of the same compound?
**A.** 205.8 µM

**Q.** And the “Kd, Ess1 residue 146” value [1, 4]?
**A.** 235.1 µM

**Q.** What about the “Kd, Ess1 residue 149” value [1, 4] of the same compound?
**A.** 100.8 µM

**Q.** And the “Kd, Ess1 residue 150” value [1, 4]?
**A.** 113.4 µM

**Q.** What about the “Kd, Ess1 residue 157” value [1, 4] of the same compound?
**A.** 151.8 µM

**Q.** What about the “Kd, Ess1 residue 158” value [1, 4] of the same compound?
**A.** 122.1 µM

**Q.** What about the “Kd, Ess1 residue 159” value [1, 4] of the same compound?
**A.** 176.3 µM

**Q.** What about the “Kd, Ess1 residue 162” value [1, 4] of the same compound?
**A.** 71.8 µM

**Q.** And the “Kd, Ess1 residue 164” value [1, 4]?
**A.** 188.7 µM

**Q.** What about the IC50 [2] of the same compound?
**A.** 259 ± 33 µM

**Q.** What about the “Normalized Anisotropy” value ([2]; [1R CTD] 21 μM) of the same compound?
**A.** 0.9587

**Q.** And the “Normalized Anisotropy” value ([2]; [1R CTD] 42 μM)?
**A.** 0.9533

**Q.** What about the “Normalized Anisotropy” value ([2]; [1R CTD] 84 μM) of the same compound?
**A.** 0.9581

**Q.** And the “Normalized Anisotropy” value ([2]; [1R CTD] 280 μM)?
**A.** 0.8033

**Q.** What about the “Normalized Anisotropy” value ([2]; [1R CTD] 336 μM) of the same compound?
**A.** 0.7637

**Q.** What about the “Normalized Anisotropy” value ([2]; [1R CTD] 560 μM) of the same compound?
**A.** 0.6982

**Q.** Which results are given for `CC(=O)N[C@@H](Cc1ccc(O)cc1)C(=O)N[C@@H](CO)C(=O)N1CCC[C@H]1C(=O)N[C@H](C(=O)N[C@@H](COP(=O)(O)O)C(=O)N1CCC[C@H]1C(=O)N[C@@H](CO)C(=O)N[C@@H](Cc1ccc(O)cc1)C(=O)N[C@@H](CO)C(=O)N1CCC[C@H]1C(=O)N[C@H](C(=O)N[C@@H](COP(=O)(O)O)C(=O)N1CCC[C@H]1C(=O)N[C@@H](CO)C(N)=O)[C@@H](C)O)[C@@H](C)O` [2R]?
**A.** IC50 [2]: 59 µM; Normalized Anisotropy ([2]; [2R CTD] 29.25 μM): 0.8399; Normalized Anisotropy ([2]; [2R CTD] 58.5 μM): 0.6905; Normalized Anisotropy ([2]; [2R CTD] 234 μM): 0.4873

**Q.** For Ess1 (from UniProt P22696), which Kd [3] is on record?
**A.** 60 µM
